Tests used:
Assay in all cases: relative viability (nuclei count vs DMSO), 5 days (fraction); higher = more cells survive
XMD14-99 + Navitoclax = compound: CN1CCN(CC1)C2=CC(=C(C=C2)NC3=NC(=C(S3)C(=O)C4=C(C=CC=C4Cl)Cl)N)OC [XMD14-99] + CC1(C)CCC(c2ccc(Cl)cc2)=C(CN2CCN(c3ccc(C(=O)NS(=O)(=O)c4ccc(N[C@H](CCN5CCOCC5)CSc5ccccc5)c(S(=O)(=O)C(F)(F)F)c4)cc3)CC2)C1 [Navitoclax] (partner 0.5 µM)
Outline: (§1)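 Lung cancer cell lines in 1536-well plates were dosed by pin tool the day after seeding, either with one drug alone or with a fixed anchor-drug dose plus five library-drug doses (not always all listed) in √10 steps. After 5 days, cells were fixed and their nuclei stained in one step (final 0.05% Triton X-100, 1% formaldehyde, 1 ug/ml Hoechst), then counted on 4× images. Relative viability is the nuclei count in treated wells divided by that in vehicle wells. Values are medians of duplicate plates.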

XMD14-99 + Palbociclib = compound: CN1CCN(CC1)C2=CC(=C(C=C2)NC3=NC(=C(S3)C(=O)C4=C(C=CC=C4Cl)Cl)N)OC [XMD14-99] + CC(=O)c1c(C)c2cnc(Nc3ccc(N4CCNCC4)cn3)nc2n(C2CCCC2)c1=O [Palbociclib] (partner 0.5 µM)
Outline: as §1

AZD1208 + Crizotinib = compound: N[C@@H]1CCCN(c2c(/C=C3\SC(=O)NC3=O)cccc2-c2ccccc2)C1 [AZD1208] + C[C@@H](Oc1cc(-c2cnn(C3CCNCC3)c2)cnc1N)c1c(Cl)ccc(F)c1Cl [Crizotinib] (partner 1 µM)
Outline: as §1

AZD1208 + Linsitinib = compound: N[C@@H]1CCCN(c2c(/C=C3\SC(=O)NC3=O)cccc2-c2ccccc2)C1 [AZD1208] + C[C@]1(O)C[C@@H](c2nc(-c3ccc4ccc(-c5ccccc5)nc4c3)c3c(N)nccn32)C1 [Linsitinib] (partner 1 µM)
Outline: as §1

Cell Line	relative viability (XMD14-99 + Navitoclax; first compound 0.08 µM)	relative viability (XMD14-99 + Navitoclax; first compound 0.8 µM)	relative viability (XMD14-99 + Navitoclax; first compound 2.53 µM)	relative viability (XMD14-99 + Navitoclax; first compound 8 µM)	relative viability (XMD14-99 + Palbociclib; first compound 0.08 µM)	relative viability (XMD14-99 + Palbociclib; first compound 0.8 µM)	relative viability (XMD14-99 + Palbociclib; first compound 2.53 µM)	relative viability (XMD14-99 + Palbociclib; first compound 8 µM)	relative viability (AZD1208 + Crizotinib; first compound 0.08 µM)	relative viability (AZD1208 + Crizotinib; first compound 0.253 µM)	relative viability (AZD1208 + Crizotinib; first compound 0.8 µM)	relative viability (AZD1208 + Crizotinib; first compound 2.53 µM)	relative viability (AZD1208 + Crizotinib; first compound 8 µM)	relative viability (AZD1208 + Linsitinib; first compound 0.08 µM)	relative viability (AZD1208 + Linsitinib; first compound 0.253 µM)	relative viability (AZD1208 + Linsitinib; first compound 0.8 µM)	relative viability (AZD1208 + Linsitinib; first compound 2.53 µM)	relative viability (AZD1208 + Linsitinib; first compound 8 µM)
201T	1.18	1.17	1.11	1.15	0.351	0.368	0.371	0.333	1	1.08	1.06	1.11	1.14	1.02	1.05	0.989	1.01	0.979
A549	1.14	1.13	1.03	0.724	–	–	–	–	0.819	0.847	0.54	0.661	0.541	0.513	0.553	0.504	0.462	0.512
A-427	0.894	0.954	0.779	0.807	0.515	0.554	0.488	0.452	0.888	0.974	0.797	0.851	0.767	1.12	1.12	1	1.17	1.02
ABC-1	–	–	–	–	0.783	0.722	0.651	0.634	1.03	1.23	1.11	1.09	1.11	0.808	0.717	0.626	0.747	0.732
BEN	0.0784	0.0577	0.0776	0.0694	0.489	0.468	0.478	0.476	0.729	0.825	0.611	0.639	0.402	0.815	0.806	0.654	0.572	0.46
CAL-12T	1.28	1.14	1.21	1.16	0.532	0.43	0.485	0.413	0.745	0.838	0.718	0.85	0.471	0.721	1.13	0.761	0.86	0.909
COR-L23	0.951	0.894	0.746	0.538	0.266	0.295	0.299	0.18	0.741	0.661	0.699	0.725	0.647	0.84	1.09	0.824	0.825	0.771
COR-L 105	0.776	0.724	0.842	0.767	0.402	0.418	0.433	0.344	0.806	0.766	0.717	0.881	0.68	0.985	0.884	0.972	0.949	0.939
Calu-6	0.772	0.802	0.726	0.473	–	–	–	–	0.615	0.952	0.672	0.711	0.758	0.86	1.03	0.919	0.967	0.872
ChaGo-K-1	1.05	1.06	0.908	0.745	0.972	0.93	0.975	0.873	1.1	1.28	0.99	1.16	0.9	–	–	–	–	–
EBC-1	0.37	0.384	0.415	0.219	–	–	–	–	0.19	0.171	0.174	0.165	0.183	0.981	1.08	0.821	0.905	0.764
EKVX	0.96	0.982	0.841	0.66	0.358	0.403	0.377	0.361	0.887	1.29	0.86	1.01	0.88	0.996	1.19	0.917	0.87	1.11
EMC-BAC-2	1.08	1.14	1.06	0.901	0.523	0.516	0.509	0.481	0.84	0.785	0.74	0.798	0.674	0.848	0.818	0.747	0.815	0.796
EPLC-272H	1.14	1.1	1.29	1.11	0.306	0.299	0.324	0.347	0.93	1	0.792	0.849	0.726	1.31	1.17	0.995	1.21	1.09
H3255	0.542	0.654	0.493	0.32	0.317	0.303	0.296	0.295	0.897	0.854	0.916	0.828	0.774	1.02	1.05	0.866	0.973	0.891
HARA	1.15	1.18	1.17	1.02	0.291	0.25	0.281	0.204	0.938	1.02	1.02	1.02	0.943	0.948	1.02	0.899	0.964	0.877
HCC-15	0.663	0.617	0.609	0.494	0.733	0.765	0.733	0.629	0.849	0.788	0.707	0.752	0.641	0.811	0.864	0.648	0.793	0.655
HCC-44	1.07	0.888	0.935	0.9	1.03	0.969	1	1.01	0.828	0.905	0.788	0.879	0.82	0.634	0.676	0.665	0.672	0.593
HCC-78	0.657	0.729	0.794	0.622	0.487	0.54	0.557	0.445	0.338	0.366	0.333	0.356	0.323	0.513	0.495	0.45	0.439	0.415

Source: the supplement of paper PMC10307832
